Results: paper doi:10.1101/2024.08.25.609621 (bioRxiv, 2024)
Where two headings read alike, the source gives them in different places.

Columns and labels:
[1] = target: SARS-CoV-2 NSP3 macrodomain (Mac1) (Severe acute respiratory syndrome coronavirus 2, UniProt P0DTD1); assay: biochemical; format: binding
[2] = target: SARS-CoV-2 NSP3 macrodomain (Mac1), P43 crystal form (Severe acute respiratory syndrome coronavirus 2, UniProt P0DTD1); format: binding
[3] = dose-response, read-out: SARS CoV-2 macrodomain HTRF assay: IC50
[4] = dose-response, read-out: SARS CoV-2 macrodomain HTRF assay: Ki
[5] = from SARS CoV-2 macrodomain HTRF assay
[6] = ligand modeling in Mac1 crystal structure
[7] = stereoisomer(s) modeled in Mac1 crystal structure
[8] = Single dose, 200 μM, mean of three technical replicates, read-out: Average % competition
[9] = preliminary screen, compound at 200 μM, mean of 3-4 technical replicates, read-out: % competition in HTRF assay
[10] = ligand modeling in Mac1 crystal soak
[11] = SARS CoV-2 macrodomain HTRF assay
[12] = SARS CoV-2 macrodomain HTRF assay, read-out: Ki
[13] = stereoisomer(s) of ligand modeled in Mac1 crystal structure
[14] = Dose-response, SARS CoV-2 macrodomain HTRF assay, read-out: IC50

SMILES: C[C@H]1CC[C@H](CO)N(c2ncnc3[nH]ccc23)C1 (racemic) [AVI-4063]
- IC50 [1, 3]: 56 µM
- Ki [1, 4]: 52 µM
- Ligand efficiency (binding enery per heavy atom) [1, 5]: 0.33
- Number of isomers bound [2, 6]: 1

SMILES: C[C@@H]1CCN(c2ncnc3[nH]ccc23)[C@H](CO)C1 (racemic) [AVI-4064]
- IC50 [1, 3]: 100 µM
- Ki [1, 4]: 93 µM
- Ligand efficiency (binding enery per heavy atom) [1, 5]: 0.31
- Number of isomers bound [2, 6]: 2
- Isomers modeled [2, 7]: RS,SR

SMILES: Nc1ncnc2c1ncn2[C@@H]1O[C@H](COP(=O)(O)OP(=O)(O)OC[C@H]2O[C@@H](O)[C@H](O)[C@@H]2O)[C@@H](O)[C@H]1O.[Na].[Na] [ADP-ribose, reference compound]
- Hill slope ([1]; HTRF dose-response fit, Mac1): 1.1
- X-ray crystal structure ([2]; crystal structure with Mac1 determined (TRUE)): TRUE

SMILES: O=C(O)C1CCCN1S(=O)(=O)c1cccc2nsnc12 (centres unmarked) [AVI-2]
- inhibition at 200 µM [1, 8]: 23%
- inhibition at 200 µM [1, 9]: 23%
- Number of isomers bound [2, 10]: 1

SMILES: CC1CC(C(=O)O)CCN1C(=O)c1ccc2c(c1)NC(=O)CO2 (centres unmarked) [AVI-303]
- inhibition at 200 µM [1, 8]: < 10%
- inhibition at 200 µM [1, 9]: < 10%
- Number of isomers bound [2, 10]: 1

SMILES: OCC(Cc1ccccc1)Nc1ncnc2[nH]ccc12 (centres unmarked) [AVI-313]
- Ligand efficiency (binding enery per heavy atom) [1, 11]: 0.27
- Ki [1, 12]: 120 µM
- IC50 ([1]; read-out: HTRF IC50): 130 µM
- Number of isomers bound [2, 10]: 2
- Isomers modeled [2, 13]: S,R

SMILES: Cc1sc2ncnc(Sc3ccccc3C(=O)O)c2c1C [AVI-317]
- IC50 [1, 14]: > 1000 µM
- Number of isomers bound [2, 10]: 1
- Isomers modeled [2, 13]: achiral,achiral

SMILES: Cc1c(C)n(Cc2ccccc2)c2ncnc(N)c12 [AVI-321]
- inhibition at 200 µM [1, 8]: 19%
- inhibition at 200 µM [1, 9]: 19%
- Number of isomers bound [2, 10]: 1
- Isomers modeled [2, 13]: achiral

SMILES: CC(CNC(=O)c1ccc2c(c1)CCC(=O)N2)C(=O)O (centres unmarked) [AVI-328]
- Ligand efficiency (binding enery per heavy atom) [1, 11]: 0.25
- Ki [1, 12]: 210 µM
- IC50 ([1]; read-out: HTRF IC50): 220 µM
- Number of isomers bound [2, 10]: 2
- Isomers modeled [2, 13]: R,S

SMILES: O=C1CCc2cc(C(=O)N3CC(C(=O)O)CCC34CCCC4)c(F)cc2N1 (centres unmarked) [AVI-338]
- IC50 [1, 14]: 800 µM
- Ligand efficiency (binding enery per heavy atom) [1, 11]: 0.16
- Ki [1, 12]: 740 µM
- Number of isomers bound [2, 6]: 1

SMILES: Cc1cc2c(=O)n(CCN3C(=O)c4ccccc4S3(=O)=O)nnc2s1 [AVI-341]
- inhibition at 200 µM [1, 8]: 11%
- inhibition at 200 µM [1, 9]: 11%
- Number of isomers bound [2, 10]: 1
- Isomers modeled [2, 13]: achiral

SMILES: CNc1ccc(NS(=O)(=O)c2cc3cccc(C)c3s2)cn1 [AVI-345]
- inhibition at 200 µM [1, 8]: 18%
- inhibition at 200 µM [1, 9]: 18%
- Number of isomers bound [2, 6]: 1
- Isomers modeled [2, 7]: achiral

SMILES: CC1CCN(C(=O)c2ccc3c(c2)nc(CO)n3C)CC1C(=O)O (centres unmarked) [AVI-348]
- inhibition at 200 µM [1, 8]: < 10%
- inhibition at 200 µM [1, 9]: < 10%
- Number of isomers bound [2, 10]: 1

SMILES: CC(C)(O)[C@H]1CCCN1c1ncnc2[nH]ccc12 [AVI-607, 2-[(2R)-1-{7H-Pyrrolo[2,3-d]pyrimidin-4-yl}pyrrolidin-2-yl]propan-2-ol]
- Ligand efficiency ([1]; binding energy per heavy atom): 0.41
- Ki [1, 4]: 4.7 µM
- Ligand efficiency (binding enery per heavy atom) [1, 5]: 0.41
- IC50 ([1]; read-out: HTRF IC50): 5.1 µM
- Number of isomers bound [2, 10]: 1

SMILES: OC[C@@H]1C[C@H](F)CN1c1ncnc2[nH]ccc12 [AVI-609]
- inhibition at 200 µM ([1]; Single dose, concentration 200 μM, read-out: SARS CoV-2 macrodomain HTRF assay: Average % competition): 52%
- inhibition at 200 µM [1, 9]: 52%
- Number of isomers bound [2, 10]: 1

SMILES: OC[C@@H]1C[C@H](O)CN1c1ncnc2[nH]ccc12 [AVI-610]
- IC50 [1, 3]: 160 µM
- Ki [1, 4]: 150 µM
- Ligand efficiency (binding enery per heavy atom) [1, 5]: 0.31
- Number of isomers bound [2, 10]: 1

SMILES: NC(=O)C1(O)CCN(c2ncnc3[nH]ccc23)C1 (centres unmarked) [AVI-611]
- inhibition at 200 µM ([1]; Single dose, concentration 200 μM, read-out: Average % competition): 30%
- inhibition at 200 µM [1, 9]: 30%
- Number of isomers bound [2, 10]: 1
- Isomers modeled [2, 13]: S,S
